In test [1] the target is Tyrosine-protein kinase Mer (Homo sapiens) (UniProt Q12866). The test is described as follows: Inhibition of Mer (unknown origin) at 0.49 uM relative to control.
Test [2] has as its system Proto-oncogene tyrosine-protein kinase receptor Ret (Homo sapiens), P07949 [Y791F]. The test is described as follows: Inhibition of RET Y791F mutant (unknown origin) at 0.49 uM relative to control.
The test system of test [3] is Tyrosine-protein kinase ABL1 (Homo sapiens), P00519 [G250E]. The test is described as follows: Inhibition of ABL1 G250E mutant (unknown origin) at 0.49 uM relative to control.
Test [4] deals with BDNF/NT-3 growth factors receptor (Homo sapiens) (UniProt Q16620). The test is described as follows: Inhibition of NTRK2 (unknown origin) at 0.49 uM relative to control.
Test [5] deals with Serine/threonine-protein kinase Nek9 (Homo sapiens) (UniProt Q8TD19). Nature of the test: Inhibition of NEK9 (unknown origin) at 0.49 uM relative to control.
Test [6] addresses Mitogen-activated protein kinase 14 (Homo sapiens) (UniProt Q16539). Nature of the test: Inhibition of p38a (unknown origin) at 0.49 uM relative to control.
Test [7] concerns the target Tyrosine-protein kinase JAK2 (Homo sapiens) (UniProt O60674). Nature of the test: Inhibition of JAK2 (unknown origin) at 0.49 uM relative to control.
Test [8] addresses Casein kinase I isoform gamma-1 (Homo sapiens) (UniProt Q9HCP0). The test is described as follows: Inhibition of CK1-gamma1 (unknown origin) at 0.49 uM relative to control.
The target of test [9] is Proto-oncogene tyrosine-protein kinase Src (Homo sapiens) (UniProt P12931). The test is described as follows: Inhibition of SRC (unknown origin) at 0.49 uM relative to control.
Test [10] addresses Tyrosine-protein kinase FRK (Homo sapiens) (UniProt P42685). The test is described as follows: Inhibition of FRK (unknown origin) at 0.49 uM relative to control.
Test [11] has as its target Ephrin type-B receptor 1 (Homo sapiens) (UniProt P54762). Nature of the test: Inhibition of EPHB1 (unknown origin) at 0.49 uM relative to control.
Test [12] has as its target SRSF protein kinase 3 (Homo sapiens) (UniProt Q9UPE1). Nature of the test: Inhibition of MSSK1 (unknown origin) at 0.49 uM relative to control.
For test [13], the target named is Serine/threonine-protein kinase Chk2 (Homo sapiens) (UniProt O96017). The test is described as follows: Inhibition of CHK2 (unknown origin) at 0.49 uM relative to control.
Test [14] deals with Macrophage-stimulating protein receptor (Homo sapiens) (UniProt Q04912). The test is described as follows: Inhibition of MST1R (unknown origin) at 0.45 uM relative to control.
Test [15] concerns the target Ephrin type-A receptor 4 (Homo sapiens) (UniProt P54764). The test is described as follows: Inhibition of EPHA4 (unknown origin) at 0.45 uM relative to control.
For test [16], the target named is Calcium/calmodulin-dependent protein kinase type II subunit gamma (Homo sapiens) (UniProt Q13555). Nature of the test: Inhibition of CaMK2-gamma (unknown origin) at 0.45 uM relative to control.
Test [17] deals with Platelet-derived growth factor receptor beta (Homo sapiens) (UniProt P09619). Nature of the test: Inhibition of PDGFR beta (unknown origin) at 0.45 uM relative to control.
The target in test [18] is T1, Serine/threonine-protein kinase Chk1 (Homo sapiens) (UniProt O14757).
T1 sequence (whole entry): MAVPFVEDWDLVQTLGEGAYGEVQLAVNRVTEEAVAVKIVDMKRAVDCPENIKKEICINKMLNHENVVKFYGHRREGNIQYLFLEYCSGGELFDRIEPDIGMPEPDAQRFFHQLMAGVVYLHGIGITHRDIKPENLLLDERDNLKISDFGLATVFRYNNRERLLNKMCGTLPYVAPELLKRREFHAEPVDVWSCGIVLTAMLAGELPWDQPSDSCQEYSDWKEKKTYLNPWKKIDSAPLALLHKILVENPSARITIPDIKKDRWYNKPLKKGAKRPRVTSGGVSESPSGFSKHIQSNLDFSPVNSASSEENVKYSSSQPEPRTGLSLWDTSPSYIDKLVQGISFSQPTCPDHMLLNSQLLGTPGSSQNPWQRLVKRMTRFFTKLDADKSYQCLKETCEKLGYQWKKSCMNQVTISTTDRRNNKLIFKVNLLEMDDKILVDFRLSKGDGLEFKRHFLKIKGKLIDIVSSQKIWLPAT
Nature of the test: Inhibition of CHK1 (unknown origin) at 0.45 uM relative to control.

Test [19] addresses Serine/threonine-protein kinase PAK 2 (Homo sapiens) (UniProt Q13177). Nature of the test: Inhibition of PAK2 (unknown origin) at 0.45 uM relative to control.
The species named for another test is Homo sapiens. Nature of the test: Inhibition of ACK (unknown origin) at 0.45 uM relative to control.
Test [20] addresses Cyclin-dependent kinase 2 (Homo sapiens) (UniProt P24941). Nature of the test: Inhibition of CDK2 (unknown origin) at 0.45 uM relative to control.
The target of test [21] is Serine/threonine-protein kinase BRSK2 (Homo sapiens) (UniProt Q8IWQ3). Nature of the test: Inhibition of BRSK2 (unknown origin) at 0.45 uM relative to control.
The target in test [22] is Dual specificity tyrosine-phosphorylation-regulated kinase 4 (Homo sapiens) (UniProt Q9NR20). Nature of the test: Inhibition of DYRK4 (unknown origin) at 0.45 uM relative to control.
In test [23] the test system is Proto-oncogene tyrosine-protein kinase receptor Ret (Homo sapiens), P07949 [V804L]. Nature of the test: Inhibition of Ret V804L mutant (unknown origin) at 0.45 uM relative to control.
Test [24] deals with Aurora kinase B (Homo sapiens) (UniProt Q96GD4). The test is described as follows: Inhibition of AurB (unknown origin) at 0.45 uM relative to control.
Chain of Aurora kinase B (Homo sapiens) (Q96GD4 whole entry): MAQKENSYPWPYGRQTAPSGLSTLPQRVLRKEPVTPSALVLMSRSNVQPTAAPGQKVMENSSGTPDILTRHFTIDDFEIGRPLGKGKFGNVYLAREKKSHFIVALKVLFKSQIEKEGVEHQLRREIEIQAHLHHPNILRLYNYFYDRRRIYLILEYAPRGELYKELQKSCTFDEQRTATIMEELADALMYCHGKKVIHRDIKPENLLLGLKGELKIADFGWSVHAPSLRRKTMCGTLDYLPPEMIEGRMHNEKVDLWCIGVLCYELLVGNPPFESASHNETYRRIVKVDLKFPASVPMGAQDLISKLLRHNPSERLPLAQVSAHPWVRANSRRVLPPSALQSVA

Chain of Serine/threonine-protein kinase Chk2 (Homo sapiens) (O96017 whole entry): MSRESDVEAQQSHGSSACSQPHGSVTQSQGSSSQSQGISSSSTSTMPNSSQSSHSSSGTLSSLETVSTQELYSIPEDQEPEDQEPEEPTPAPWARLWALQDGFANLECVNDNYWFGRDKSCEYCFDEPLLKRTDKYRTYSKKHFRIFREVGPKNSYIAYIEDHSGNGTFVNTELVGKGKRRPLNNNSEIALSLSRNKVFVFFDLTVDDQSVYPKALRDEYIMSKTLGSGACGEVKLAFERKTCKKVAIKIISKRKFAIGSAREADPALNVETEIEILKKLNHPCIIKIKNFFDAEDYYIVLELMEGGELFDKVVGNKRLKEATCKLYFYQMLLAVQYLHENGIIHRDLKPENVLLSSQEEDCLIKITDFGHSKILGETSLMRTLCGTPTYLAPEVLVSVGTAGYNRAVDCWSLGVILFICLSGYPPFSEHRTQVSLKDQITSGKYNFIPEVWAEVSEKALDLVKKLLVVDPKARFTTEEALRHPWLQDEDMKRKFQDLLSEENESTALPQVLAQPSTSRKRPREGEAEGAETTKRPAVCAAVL
Chain of SRSF protein kinase 3 (Homo sapiens) (Q9UPE1 whole entry): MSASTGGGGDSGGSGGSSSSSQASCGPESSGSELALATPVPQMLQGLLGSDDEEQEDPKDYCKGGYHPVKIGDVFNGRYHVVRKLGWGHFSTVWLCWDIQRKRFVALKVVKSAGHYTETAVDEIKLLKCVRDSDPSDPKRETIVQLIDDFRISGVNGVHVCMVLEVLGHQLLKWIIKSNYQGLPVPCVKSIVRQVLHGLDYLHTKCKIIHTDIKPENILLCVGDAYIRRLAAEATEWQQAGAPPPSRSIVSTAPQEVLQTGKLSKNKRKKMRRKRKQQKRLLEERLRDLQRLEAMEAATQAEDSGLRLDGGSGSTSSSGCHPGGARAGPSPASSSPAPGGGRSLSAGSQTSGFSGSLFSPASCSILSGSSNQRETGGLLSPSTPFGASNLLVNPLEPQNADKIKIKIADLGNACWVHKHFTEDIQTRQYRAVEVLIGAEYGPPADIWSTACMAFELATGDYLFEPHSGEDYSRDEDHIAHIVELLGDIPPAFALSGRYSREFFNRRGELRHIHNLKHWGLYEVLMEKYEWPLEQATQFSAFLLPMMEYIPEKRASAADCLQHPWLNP
Chain of Tyrosine-protein kinase FRK (Homo sapiens) (P42685 whole entry): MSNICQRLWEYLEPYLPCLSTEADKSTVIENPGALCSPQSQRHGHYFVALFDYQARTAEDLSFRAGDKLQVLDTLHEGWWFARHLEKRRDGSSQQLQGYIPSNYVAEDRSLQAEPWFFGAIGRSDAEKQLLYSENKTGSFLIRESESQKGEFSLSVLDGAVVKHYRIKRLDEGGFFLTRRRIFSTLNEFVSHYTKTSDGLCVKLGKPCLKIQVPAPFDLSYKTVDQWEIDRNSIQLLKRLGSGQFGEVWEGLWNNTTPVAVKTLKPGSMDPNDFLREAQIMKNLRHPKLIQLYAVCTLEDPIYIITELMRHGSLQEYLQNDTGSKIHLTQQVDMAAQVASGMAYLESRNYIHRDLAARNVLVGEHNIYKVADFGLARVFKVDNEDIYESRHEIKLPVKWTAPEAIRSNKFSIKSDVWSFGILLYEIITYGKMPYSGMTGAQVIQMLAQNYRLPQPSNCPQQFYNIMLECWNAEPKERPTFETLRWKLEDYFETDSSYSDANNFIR
Chain of Casein kinase I isoform gamma-1 (Homo sapiens) (Q9HCP0 whole entry, looked up, canonical isoform): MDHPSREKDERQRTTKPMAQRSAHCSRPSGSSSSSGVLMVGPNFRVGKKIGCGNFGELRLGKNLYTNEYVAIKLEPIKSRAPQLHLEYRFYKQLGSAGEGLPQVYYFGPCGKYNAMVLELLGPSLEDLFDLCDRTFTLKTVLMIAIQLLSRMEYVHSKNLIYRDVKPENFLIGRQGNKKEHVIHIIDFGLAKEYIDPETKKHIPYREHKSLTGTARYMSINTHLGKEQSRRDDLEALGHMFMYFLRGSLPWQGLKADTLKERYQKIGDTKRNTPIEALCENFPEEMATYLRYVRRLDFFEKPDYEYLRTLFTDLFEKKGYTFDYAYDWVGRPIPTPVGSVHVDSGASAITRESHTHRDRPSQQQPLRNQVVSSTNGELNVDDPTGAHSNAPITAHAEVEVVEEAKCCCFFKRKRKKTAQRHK
Chain of Ephrin type-A receptor 4 (Homo sapiens) (P54764 whole entry): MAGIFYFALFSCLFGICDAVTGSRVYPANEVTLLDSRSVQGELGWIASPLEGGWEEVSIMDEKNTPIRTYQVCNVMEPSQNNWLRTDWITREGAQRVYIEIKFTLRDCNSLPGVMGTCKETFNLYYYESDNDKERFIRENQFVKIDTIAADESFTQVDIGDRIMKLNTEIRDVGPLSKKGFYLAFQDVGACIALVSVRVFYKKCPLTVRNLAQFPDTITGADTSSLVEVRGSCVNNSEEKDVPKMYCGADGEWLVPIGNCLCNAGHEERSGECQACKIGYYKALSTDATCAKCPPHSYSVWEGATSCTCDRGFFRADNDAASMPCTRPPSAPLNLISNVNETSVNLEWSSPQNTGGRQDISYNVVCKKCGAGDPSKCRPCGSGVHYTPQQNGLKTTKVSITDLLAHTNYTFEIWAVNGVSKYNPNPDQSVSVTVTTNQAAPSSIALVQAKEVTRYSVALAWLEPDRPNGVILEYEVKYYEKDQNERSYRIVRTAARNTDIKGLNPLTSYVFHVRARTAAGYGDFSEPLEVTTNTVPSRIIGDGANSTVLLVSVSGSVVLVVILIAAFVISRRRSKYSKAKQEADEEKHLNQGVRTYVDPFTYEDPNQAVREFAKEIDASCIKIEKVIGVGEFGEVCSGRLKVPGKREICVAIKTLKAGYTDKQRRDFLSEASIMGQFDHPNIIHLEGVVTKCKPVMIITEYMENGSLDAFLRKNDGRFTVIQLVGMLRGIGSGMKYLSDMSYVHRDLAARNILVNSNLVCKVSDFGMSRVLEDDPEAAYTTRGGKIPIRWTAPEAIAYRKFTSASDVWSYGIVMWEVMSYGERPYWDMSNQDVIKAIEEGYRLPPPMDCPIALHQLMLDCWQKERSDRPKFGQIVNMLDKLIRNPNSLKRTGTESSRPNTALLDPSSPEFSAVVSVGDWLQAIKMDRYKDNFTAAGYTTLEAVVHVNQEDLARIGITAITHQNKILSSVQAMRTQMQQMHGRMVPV
Chain of Ephrin type-B receptor 1 (Homo sapiens) (P54762 whole entry): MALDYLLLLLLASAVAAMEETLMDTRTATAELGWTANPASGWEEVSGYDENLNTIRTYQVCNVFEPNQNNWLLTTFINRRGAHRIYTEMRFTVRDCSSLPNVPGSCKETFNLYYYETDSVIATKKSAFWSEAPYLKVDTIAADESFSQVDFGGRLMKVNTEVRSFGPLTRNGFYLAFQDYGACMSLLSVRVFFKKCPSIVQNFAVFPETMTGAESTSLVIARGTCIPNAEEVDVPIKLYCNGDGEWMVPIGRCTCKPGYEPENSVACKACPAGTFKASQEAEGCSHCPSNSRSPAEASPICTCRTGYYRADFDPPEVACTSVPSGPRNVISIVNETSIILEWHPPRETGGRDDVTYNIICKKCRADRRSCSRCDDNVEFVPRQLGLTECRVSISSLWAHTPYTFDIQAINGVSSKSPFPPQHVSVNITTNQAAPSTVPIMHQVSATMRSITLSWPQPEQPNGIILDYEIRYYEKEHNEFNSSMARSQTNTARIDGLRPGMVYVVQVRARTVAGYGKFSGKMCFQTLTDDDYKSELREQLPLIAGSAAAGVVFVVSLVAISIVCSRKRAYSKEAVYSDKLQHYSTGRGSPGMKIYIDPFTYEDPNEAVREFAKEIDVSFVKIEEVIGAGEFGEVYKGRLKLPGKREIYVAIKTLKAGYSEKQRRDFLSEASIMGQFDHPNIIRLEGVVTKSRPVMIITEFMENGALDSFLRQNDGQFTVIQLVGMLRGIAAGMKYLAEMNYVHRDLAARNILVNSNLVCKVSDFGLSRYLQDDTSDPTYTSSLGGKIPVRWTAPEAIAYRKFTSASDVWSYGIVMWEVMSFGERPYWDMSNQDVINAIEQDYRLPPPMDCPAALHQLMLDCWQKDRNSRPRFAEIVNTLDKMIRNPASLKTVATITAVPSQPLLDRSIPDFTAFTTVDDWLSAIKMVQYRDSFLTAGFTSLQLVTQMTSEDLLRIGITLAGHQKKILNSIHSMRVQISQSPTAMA
Chain of Mitogen-activated protein kinase 14 (Homo sapiens) (Q16539 whole entry): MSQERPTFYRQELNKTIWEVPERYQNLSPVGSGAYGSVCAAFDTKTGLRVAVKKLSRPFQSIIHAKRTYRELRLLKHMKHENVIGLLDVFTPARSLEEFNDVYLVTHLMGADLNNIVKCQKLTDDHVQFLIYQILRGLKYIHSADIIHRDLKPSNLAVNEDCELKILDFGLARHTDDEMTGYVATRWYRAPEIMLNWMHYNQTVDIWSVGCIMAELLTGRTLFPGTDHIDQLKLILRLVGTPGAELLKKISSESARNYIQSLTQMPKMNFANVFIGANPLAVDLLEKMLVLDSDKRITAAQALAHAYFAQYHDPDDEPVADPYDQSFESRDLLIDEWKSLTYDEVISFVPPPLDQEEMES

For orientation: inhibition means the drop in the measured response relative to a control, in per cent. In the case of `Cc1[nH]nc(C2CC2)c1-c1ccc2c(NC(=O)C3CC3)noc2c1`, the inhibition in test [1] is 11.3%; in test [2] it was 0%; in [3], 23.7%; in test [4], 4.3%; in test [5], 1.7%; in test [6], -1.7%. The inhibition is -1.7% in [7]; 0.7% in test [8]; 5% in [9]; 1.3% in test [10]; 1.3% in test [11]; 4% in test [12]. Besides, the inhibition in test [13] worked out at 8%.
On to `Cc1n[nH]c(C)c1-c1ccc2c(NC(=O)c3ccc(N4CCN(C)CC4)cc3)n[nH]c2c1`, for which the inhibition in test [14] was -1%; in test [15], 0.7%; in test [16] it was 3%; in test [17] it was 78.3%; in test [18] it was 2.3%; in test [19] it was -2.7%. Also, the inhibition in the test filed under Homo sapiens is 13%; in test [20], 6%; in test [21] it was 13.3%; in test [22], 2.7%; in test [23] it was 21.3%; in test [24], 11%.

(Values after ChEMBL document CHEMBL4052759, “Discovery of DS79182026: A potent orally active hepcidin production inhibitor” (Bioorg Med Chem Lett, 2017).)
